Source: patent US20250049737A1, “Lauflumide and derivatives thereof for treating chronic fatigue syndrome and myalgic encephalomyelitis/chronic fatigue syndrome (ME/CFS)” (NLS Pharmaceutics AG, priority 2021, published 2025)

Molecular target: T1, Relaxin-3 (RXFP3) (h) (agonist radioligand) (Homo sapiens, UniProt Q9NSD7)
T1 sequence (Q9NSD7 1-469): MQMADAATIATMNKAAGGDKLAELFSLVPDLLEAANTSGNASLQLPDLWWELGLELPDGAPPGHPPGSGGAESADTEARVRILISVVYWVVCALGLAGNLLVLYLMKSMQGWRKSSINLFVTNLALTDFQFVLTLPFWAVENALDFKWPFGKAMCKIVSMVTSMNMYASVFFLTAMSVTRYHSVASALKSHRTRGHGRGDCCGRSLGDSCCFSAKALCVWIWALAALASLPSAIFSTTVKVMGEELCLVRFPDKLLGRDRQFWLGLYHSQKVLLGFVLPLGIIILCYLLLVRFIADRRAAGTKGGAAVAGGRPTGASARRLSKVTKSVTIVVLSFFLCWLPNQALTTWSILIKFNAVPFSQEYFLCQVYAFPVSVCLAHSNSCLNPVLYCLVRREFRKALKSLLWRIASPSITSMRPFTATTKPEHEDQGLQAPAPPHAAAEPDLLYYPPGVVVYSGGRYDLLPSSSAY
Assay: RXFP3 assay (Eurofins/leadHunter GPCR Biosensor cAMP Hunter)
Assay type: cell-based
Experimental: Lauflumide is found to weakly bind with RXFP3 receptors (Study US073-0006869-Q Eurofins/leadHunter 8/1/19; unpublished data) (Table 1).
In these assays' compounds were tested in agonist and antagonist mode with the GPCR Biosensor Assays and match to this design:
1. cAMP Hunter cell lines were expanded from freezer stocks according to standard procedures.
2. Cells were seeded in a total volume of 20 μL into white walled, 384-well microplates and incubated at 37° C. for the appropriate time prior to testing.
3. cAMP modulation was determined using the DiscoverX HitHunter cAMP XS+ assay.
1. For agonist determination, cells were incubated with sample in the presence of EC80 forskolin to induce response.
2. Media was aspirated from cells and replaced with 15 μL 2:1 HBSS/10 mM Hepes: cAMP XS+ Ab reagent.
3. […]
2. Microplates were read following signal generation with a PerkinElmer Envision™ instrument for chemiluminescent signal detection.
1. Compound activity was analyzed using CBIS data analysis suite (ChemInnovation, CA).
5. For Gi agonist mode assays, percentage activity is calculated using the following formula: […]
8. For Gi antagonist or negative allosteric mode assays, percentage inhibition is calculated using the following formula: % Inhibition=100%×(mean RLU of test sample−mean RLU of EC80 control)/(mean RLU of forskolin positive control−mean RLU of […]

## NC(=O)C[S@@+]([O-])C(c1ccc(F)cc1)c1ccc(F)cc1 [Lauflumide, 2-[(R)-((bis(4-fluorophenyl)methane)sulfinyl)]acetamide]
  % Inhibition at 10^−5M: 23.9%
